Results reported in article PMC13005684 (Advanced Healthcare Materials, 2025).
Counter-ions that a name gives are not always drawn.

How the values were obtained:
[1] = system: MDA-MB-231 cells; assay: cells; assay type: cell-based; conditions: Homo sapiens, MDA-MB-231, 72 h, read-out: 3-day IC50
[2] = system: MDA-MB-231 cells; assay type: cell-based, human

Row | SMILES | IC50 [1] [nM] | cell death pathway triggered [2]
1 | COc1cccc2c1C(=O)c1c(O)c3c(c(O)c1C2=O)C[C@@](O)(C(=O)CO)C[C@@H]3O[C@H]1C[C@H](N)[C@H](O)[C@H](C)O1 [doxorubicin, doxorubicin hydrochloride] | ~510 | necrotic cell death pathway
2 | COC1=C2C[C@@H](C)C[C@H](OC)[C@H](O)[C@@H](C)/C=C(\C)[C@H](OC(N)=O)[C@@H](OC)/C=C\C=C(/C)C(=O)NC(=CC1=O)C2=O [geldanamycin, Geldanamycin] | 3700 | apoptosis
